Source: patent publication US20100267712A1, “ISOINDOLINE COMPOUNDS FOR THE TREATMENT OF SPINAL MUSCULAR ATROPHY AND OTHER USES” (The United States of America, as represented by the …, priority 2007, published 2010)

Tested on: SMN2-linked luciferase-reporter gene construct
Assay: SMN Splice Reporter Assay (SMN2-linked luciferase reporter)
Format: cell-based
Settings: for EC50: cervical carcinoma cell lines, SMN2 splice luciferase reporter; for Fold Increase: fold-increase of luciferase over baseline reading of transformed cells without any test compound
In short: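 Cervical carcinoma cells carrying an SMN2-luciferase splicing reporter, in-frame only with exon 7 inclusion, were treated with compound. Luciferase activity reported as fold increase over untreated transformed cells, with EC50 derived.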

| SMILES | EC50 [nM] | Fold Increase |
| --- | --- | --- |
| COc1ccc2c(c1)C(=O)N(c1ccc3nccc(Cl)c3c1)C2 [Example 123013] | 902 | 1.413 |
| CCCc1ccc2c(c1)C(=O)N(c1ccc3c(c1)cc(C)n3C)C2 [Example 123014] | 323 | 1.407 |
| Cc1ccc2c(c1)C(=O)N(c1ccc3c(c1)cc(C)n3C)C2 [Example 123015] | 53 | 1.43 |
| CCc1ccc2c(c1)C(=O)N(c1ccc3c(c1)cc(C)n3C)C2 [Example 123016] | 197 | 1.481 |
| Cc1cc2cc(N3Cc4ccc(OC(F)F)cc4C3=O)ccc2n1C [Example 123204] | 374 | 1.361 |
| COc1ccc2c(c1)C(=O)N(c1ccc3nccc(OC)c3c1)C2 [Example 123205] |  | 1.227 |
| COc1ccc2c(c1)C(=O)N(c1ccc3nc(Cl)ccc3c1)C2 [Example 123206] | 119 | 1.531 |
| CCOc1ccc2c(c1)C(=O)N(c1ccc3c(c1)cc(C)n3C)C2 [Example 123328] | 444 | 1.316 |
| CCC(C)c1ccc2c(c1)C(=O)N(c1ccc3c(c1)cc(C)n3C)C2 (centres unmarked) [Example 123329] | 569 | 1.327 |
| CCCCc1ccc2c(c1)C(=O)N(c1ccc3c(c1)cc(C)n3C)C2 [Example 123331] | 660 | 1.31 |
| COc1ccc2c(c1)C(=O)N(c1ccc3nc(N(C)C)ccc3c1)C2 [Example 123332] | 207 | 1.272 |
| COc1ccc2c(c1)C(=O)N(c1ccc3nc(OC)ccc3c1)C2 [Example 123333] | 20 | 1.376 |
| Cc1cc2cc(N3Cc4ccc(CC(C)C)cc4C3=O)ccc2n1C [Example 123439] | 359 | 1.357 |
| Cn1ccc2cc(N3Cc4ccc(N5CCOCC5)cc4C3=O)ccc21 [Example 123587] |  | 1.256 |
| CN1CCN(c2ccc3c(c2)C(=O)N(c2ccc4c(ccn4C)c2)C3)CC1 [Example 123588] |  | 1.183 |
| COc1ccc2c(c1)C(=O)N(c1ccc3nccc(C)c3c1)C2 [Example 123589] | 78 | 1.541 |
| COc1ccc2c(c1)C(=O)N(c1ccc3sc(C)c(C)c3c1)C2 [Example 123590] | 128 | 1.405 |
| COc1ccc2c(c1)C(=O)N(c1ccc3ccc(Cl)nc3c1)C2 [Example 123710] | 47 | 1.327 |
| COc1ccc2c(c1)C(=O)N(c1ccc3c(Cl)ccnc3c1)C2 [Example 123711] | 1580 | 1.262 |
| COc1ccc2c(c1)C(=O)N(c1ccc3c(OC)ccnc3c1)C2 [Example 123712] | 147 | 1.38 |
| COc1ccc2c(c1)C(=O)N(c1ccc3c(N(C)C)ccnc3c1)C2 [Example 123713] |  | 1.072 |
| CCCOc1ccc2c(c1)C(=O)N(c1ccc3c(c1)cc(C)n3C)C2 [Example 123715] | 145 | 1.216 |
| COc1ccc2c(c1)C(=O)N(c1ccc3c(c1)cc(C(=O)N1CCCC1)n3C)C2 [Example 123935] |  | 1.124 |

| SMILES | EC50 [nM] | Fold Increase |
| --- | --- | --- |
| COc1ccc2c(c1)C(=O)N(c1ccc3ccc(OC)nc3c1)C2 [Example 123936] | 784 | 1.429 |
| COc1ccc2c(c1)C(=O)N(c1ccc3ccc(N(C)C)nc3c1)C2 [Example 123937] |  | 1.202 |
| Cc1cc2cc(N3Cc4ccc(OC5CCCC5)cc4C3=O)ccc2n1C [Example 123938] |  | 1.2 |
| CCOC1CS(=O)(=O)c2cc(N3Cc4ccc(OC)cc4C3=O)ccc21 (centres unmarked) [Example 124031] |  | 1.106 |
| O=C1c2cc(Br)ccc2CN1c1ccc2ncccc2c1 [Example 124033] | 225 | 1.795 |
| CC(=O)Nc1ccc2c(c1)C(=O)N(c1ccc3c(c1)cc(C)n3C)C2 [Example 124034] | 440 | 1.494 |
| CCCCOc1ccc2c(c1)C(=O)N(c1ccc3c(c1)cc(C)n3C)C2 [Example 124035] |  | 1.118 |
| COc1cc2c(cc1OC)C(=O)N(c1ccc3c(c1)cc(C)n3C)C2 [Example 124036] | 1640 | 1.34 |
| COc1ccc2c(c1)C(=O)N(c1ccc3c(N(C)C)ccnc3c1)C2 [Example 124037] | 5970 | 1.377 |
| COc1ccc2c(c1)C(=O)N(c1ccc3c(C)ccnc3c1)C2 [Example 124038] | 26 | 1.509 |
| Cn1ccc2ccc(N3Cc4ccc(O)cc4C3=O)cc21 [Example 124039] | 520 | 1.893 |
| Cc1cc2cc(N3Cc4ccc(S(C)(=O)=O)cc4C3=O)ccc2n1C [Example 124166] |  | 1.227 |
| CCOc1ccc2c(c1)C(=O)N(c1ccc3ccn(C)c3c1)C2 [Example 124167] | 69 | 1.759 |
| Cn1ccc2ccc(N3Cc4ccc(S(C)(=O)=O)cc4C3=O)cc21 [Example 124168] |  | 1.462 |
| CCc1ccc2c(c1)C(=O)N(c1ccc3ccn(C)c3c1)C2 [Example 124169] | 152 | 1.673 |
| COc1ccc2c(c1)C(=O)N(c1ccc3ccc(O)nc3c1)C2 [Example 124170] |  | 1.102 |
| CCCOc1ccc2c(c1)C(=O)N(c1ccc3ccn(C)c3c1)C2 [Example 124325] | 145 | 1.69 |
| CCc1cc2cc(N3Cc4ccc(OC)cc4C3=O)ccc2n1C [Example 124327] | 560 | 1.361 |
| COCc1cc2cc(N3Cc4ccc(OC)cc4C3=O)ccc2n1C [Example 124328] |  | 1.305 |
| CCCc1ccc2c(c1)C(=O)N(c1ccc3ccn(C)c3c1)C2 [Example 124428] | 151 | 1.692 |
| COc1ccc2c(c1)C(=O)N(c1ccc3ccc(C)nc3c1)C2 [Example 124430] | 46 | 1.411 |
| Cn1ccc2ccc(N3Cc4ccc(N5CCOCC5)cc4C3=O)cc21 [Example 124539] |  | 1.652 |
| CN1CCN(c2ccc3c(c2)C(=O)N(c2ccc4ccn(C)c4c2)C3)CC1 [Example 124649] |  | 1.119 |
